Experiment: In vitro elution of antibiotics from beads into PBS, quantified by LCMS
Format: physicochemical
Settings: beads in 4 mL PBS at 37° C, 1.5 ml exchanged per time point
Experimental: Three grams of beads 2 were immersed in 4 mL of sterile phosphate-buffered saline (PBS) at 37° C. At each time point, 1.5 ml of the solution was sampled and replenished with fresh PBS. The samples were then syringe filtered using a 0.2 μm 13 mm PES syringe tilter into 2 mL amber glass vials.
Quantification of eluted antibiotics was measured using a single quadrupole mass spectrometer (MS) coupled to a 1260 infinity II series liquid chromatography stack (LCMS) (Agilent Technologies). Depending on the concentration, samples were analysed either neat or diluted to ensure values fell within the linear range of the standard curves. Concentrations were calculated from peak areas using standard curves developed from dilutions of antibiotic prepared to known concentrations. Separation was conducted with a Poroshell 120-SB-C18 column ([…]).
LCMS conditions were Buffer A was 99.9% H2O, 0.1% Heptafluorobutyric Acid and B was 99.9% Acetonitrile (CAN), 0.1% % Heptafluorobutyric Acid. The gradient was held with 30.0% B for 2 min before increasing linearly to 95.0% over 5 min. The 100% B was maintained for a further 1 min before rapid equilibration in 100% A. The flow rate was constant at 0.3 mL/min.
The gas temperature in the source was 325° C. with a flow rate of 9 L/min. The nebulizer pressure was 35 pounds per square inch and the capillary voltage […]. Fragmentor and collision energy voltages were optimized for each antibiotic.

Elution concentration (Day 1): 7046.208 µg/mL
Elution concentration (Day 3): 4693.264 µg/mL
Elution concentration (Day 4): 3130.589 µg/mL
Elution concentration (Day 7): 1972.743 µg/mL
Elution concentration (Day 8): 1058.751 µg/mL
Elution concentration (Day 9): 574.1567 µg/mL
Elution concentration (Day 10): 354.742 µg/mL
Elution concentration (Day 11): 216.352 µg/mL
Elution concentration (Day 14): 135.2563 µg/mL
Elution concentration (Day 15): 109.8367 µg/mL
Elution concentration (Day 17): 15.486 µg/mL
Elution concentration (Day 18): 9.978 µg/mL
Elution concentration (Day 21): 7.125 µg/mL
Elution concentration (Day 22): 5.194 µg/mL
Elution concentration (Day 23): 3.866 µg/mL
Elution concentration (Day 24): 3.277 µg/mL
Elution concentration (Day 25): 2.913 µg/mL
Elution concentration (Day 29): 2.833 µg/mL
Elution concentration (Day 30): 2.598 µg/mL
Elution concentration (Day 31): 2.454 µg/mL
Substance: tobramycin sulfate
